# Experiments:
# Type in all cases: cell-based
# [1] = tested on: c-Src mRNA in RAW264.7 cells; assay: RT-PCR, RANKL-induced mRNA expression of c-Src; conditions: for RANKL-induced mRNA expression level of c-Src: RAW264.7 cells, 24 hours, CTL 100%, mean ± SEM
# Description: The culture medium was discarded. […] [table] f) Running • A.
# [2] = tested on: MMP-2 enzyme activity of RAW264.7 cells; assay: Gelatin zymography, enzyme activity of MMP-2 induced by RANKL; conditions: 10 μM, RANKL 24 hours, FIG. 20
# Protocol: KMUP-1 influences there major up-stream signal transduction pathways which are related to RANK/RANKL. Western blot is used to estimate the amount of matrix metalloproteinase (MMP)-2 and MMP-9 which are related to the dissolution of osteoclast-like cells, and the enzyme activity of MMP-2 and MMP-9 are estimated via Gelatin Zymography. […] After 24 hours reaction, the reaction fluid was centrifuged (13,000 rpm, 4° C., 20 minutes), and then the supernatant was stored in −80° C. • b) 10% gel preparation. 10 mg gelatin was added by 1 ml ddH2O and then was heated in water bath until the solution was clear. • c) Concentrations of the proteins were examined by Bio-Red DC Protein Assay. After knowing the concentrations, the proteins were diluted to specific concentrations by adding ddH2O. One forth volume of the diluted proteins of sample buffer was added into the diluted proteins. After shaking, the diluted proteins could be added into wells of the gel. Subsequently, 1× running buffer was added with the gel, and then the gel was run at 100 V for 10 minutes until the proteins were driven to the intersection between a loading gel and a running gel. Then, the voltage was swopped to 200 V for 60 minutes. • d) After electrophoresis, the loading gel was discarded, and the left gel was washed by TritonX-100 buffer for 30 minutes in room temperature twice. […]
# HMGB1 in RAW264.7 cells = assay: Western blot, RANKL-induced transfer of HMGB1 from nucleus to extracellular space; conditions: 5 μM, 7.5 μM and 10 μM for 24 hours, 10 ng/ml RANKL 18 hours, dose dependent, FIGS. 22(B), 23(B), 24(B)
# Protocol: HMGB1 can affect the proliferation and differentiation of osteoclasts, the HMGB1 which originally exists in a cell nuclear is stimulated by RANKL to transfer to cytoplasm or extracellular space, and the HMGB1 in the extracellular space like pro-inflammatory cytokines can regulate the proliferation and differentiation of osteoclasts via RANK/RANKL pathway or other pathways. 10 ng/ml RANKL is used to stimulate RAW264.7 cells, and the extracellular medium, cytoplasm and nucleus are separated at 0 hours, 6 hours, 12 hours, 18 hours and 24 hours, and then via western blot to confirm the expression level of the HMGB1. After stimulating 24 hours, the HMGB1 obviously transfers to the extracellular space from the nucleus and the cytoplasm (FIGS. 22(A), 23(A), and 24(A)). Moreover, when it is stimulated by RANKL for 18 hours, the effect of transferring to the extracellular space and the cytoplasm is most obvious. Different concentrations of KMUP-1 are administrated for 24 hours, and 10 ng/ml RANKL is used to stimulate for 18 hours. […] Nuclear proteins were extracted according to the instructions of NE-PER kit. 2.5×10^6 cells were plated per well in 24-well plates. […] Subsequently, the cells were added by 5.5 μ[…] and shaken for 5 seconds and then put on ice for 1 minute. After that, the cells were shaken again for 5 seconds and centrifuged (10,000 rpm, 4° C., 5 minutes). […]
smiles,measurement,setting,value
"Cn1c(=O)c2c(ncn2CCN2CCN(c3ccccc3Cl)CC2)n(C)c1=O [KMUP-1, 7-[2-[4-(2-Chlorophenyl)piperazin-1-yl]ethyl] theophylline]",effect on mRNA expression of c-Src induced by RANKL (in words),"[1]; 10 ng/ml RANKL, summary of Table 1",not obviously inhibits
same,RANKL-induced mRNA expression level of c-Src,[1]; RANKL 10 ng/ml + KMUP-1 1 μM,101.4 ± 4.5%
same,RANKL-induced mRNA expression level of c-Src,[1]; RANKL 10 ng/ml + KMUP-1 2.5 μM,103.9 ± 2.7%
same,RANKL-induced mRNA expression level of c-Src,[1]; RANKL 10 ng/ml + KMUP-1 5 μM,95.8 ± 2.8% ^
same,RANKL-induced mRNA expression level of c-Src,[1]; RANKL 10 ng/ml + KMUP-1 7.5 μM,91.5 ± 4.5% ^
same,RANKL-induced mRNA expression level of c-Src,[1]; RANKL 10 ng/ml + KMUP-1 10 μM,98.6 ± 6.2% ^
same,enzyme activity of MMP-2 induced by RANKL,[2],can reduce the enzyme activity of MMP-2 and MMP-9
same,RANKL-induced transfer of HMGB1 to extracellular space from cell nucleus,HMGB1 in RAW264.7 cells,can inhibit that RANKL induces HMGB1 to transfer to extracellular space from a cell nuclear

# Source: patent publication US8507506B2, “Theophylline derivative inhibits osteoporosis” (Kaohsiung Medical University, priority 2011, dated 2013)
